Here are results for 19 compounds from patent US6962939B1, “Condensed indoline derivatives and their use as 5HT, in particular 5HT2C, receptor ligands” (Vernalis Research Limited, priority 1999, dated 2005).

Structures can show the parent of a compound that is named as a salt. Some results are limits rather than exact numbers.

The target in one series is T1, h5-HT2A receptor (Homo sapiens, UniProt P28223).
T1 construct: expressed in transfected cells; host or cells: CHO cells
As to the kind of experiment: Functional activity, FLIPR calcium assay, CHO cells expressing h5-HT2A. Format: cell-based. The following applies: for Emax: CHO, read-out: h5-HT2A Relative Efficacy (%); for EC50: FLIPR, CHO cells, Fluo 3-AM. As to the method:
(§1) The functional activity of compounds of formula (I) was assayed using a Fluorimetric Imaging Plate reader (FLIPR) in the following manner.
(§2) CHO cells expressing either the h5-HT2C or h5-HT2A receptors were counted and plated into standard 96 well microtitre plates before the day of testing to give a confluent monolayer. The following day the cells were dye loaded with the calcium sensitive dye Fluo 3-AM by incubation with serum free culture maintenance media containing plumnic acid and Fluo 3-AM dissolved in DMSO at 37° C. in a CO2 incubator at 95% humidity for approximately 90 minutes. Unincorporated dye was removed by washing with Hanks balanced salt solution containing 20 mM HEPES and 2.5 mM probenecid (the assay buffer) using an automated cell washer to leave a total volume of 100 μl/well.
(§3) The drug (dissolved in 50 μl of assay buffer) was added at a rate of 70 μL/sec to each well of the FLIPR 96 well plate during fluorescence measurements. The measurements are taken at 1 sec intervals and the maximum fluorescent signal was measured (approx 10–15 secs after drug addition) and compared with the response produced by 10 μM 5-HT (defined as 100%) to which it is expressed as a percentage response (relative efficacy). Dose response curves were constructed using Graphpad Prism (Graph Software Inc.).

The target in a further series is T2, h5-HT2C receptor (Homo sapiens, UniProt P28335).
T2 construct: expressed in transfected cells; host or cells: CHO cells
T2 sequence (P28335 33-458): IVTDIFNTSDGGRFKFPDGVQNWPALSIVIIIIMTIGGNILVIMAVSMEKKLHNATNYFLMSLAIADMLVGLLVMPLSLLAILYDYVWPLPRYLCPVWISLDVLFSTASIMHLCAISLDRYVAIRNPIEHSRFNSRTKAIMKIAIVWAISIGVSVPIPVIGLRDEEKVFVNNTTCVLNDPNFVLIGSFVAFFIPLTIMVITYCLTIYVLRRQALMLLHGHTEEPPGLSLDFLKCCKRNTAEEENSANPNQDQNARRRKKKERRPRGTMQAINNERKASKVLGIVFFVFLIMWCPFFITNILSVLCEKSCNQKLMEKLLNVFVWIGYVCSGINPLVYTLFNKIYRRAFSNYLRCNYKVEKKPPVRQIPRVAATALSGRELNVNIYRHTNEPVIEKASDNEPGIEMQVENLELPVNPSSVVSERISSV
As to the kind of experiment: Functional activity, FLIPR calcium assay, CHO cells expressing h5-HT2C. Type of series: cell-based. The following applies: for Emax: CHO, read-out: h5-HT2C Relative Efficacy (%); for EC50: FLIPR, CHO cells, Fluo 3-AM. The protocol:
as §1, §2, §3

The conditions of series [1]: prolonged period (greater than 6 months); cited from earlier work.
For a further series, the system named is female volunteers. The following applies: single injection; cited from earlier work.
Series [2] concerns obese male and female subjects. The following applies: subchronic treatment for a 14 day period; cited from earlier work.
The test system of the next series is rats. The following applies: cited from earlier work.
Another series addresses T3, human 5-HT2B receptors (Homo sapiens, UniProt P41595).
T3 construct: expressed in transfected cells; host or cells: CHO cell line
As to the kind of experiment: Binding to 5-HT2B receptor, [3H]-5-HT, CHO cell line. Particulars: read-out: Ki (2B). The protocol:
(§4) The binding of compounds of formula (1) to serotonin receptors was determined in vitro by standard methods. The preparations were investigated in accordance with the assays given hereinafter.
Method (b): For the binding to the 5-HT2B receptor the 5-HT2B receptors were radiolabeled with [3H]-5-HT. The affinity of the compounds for human 5-HT2B receptors in a CHO cell line was determined according to the procedure of K. Schmuck, C. Ullmer, P. Engels and H. Lubbert, FEBS Lett., 1994, 342, 85–90.

A further series deals with T4, 5-HT2C receptor (Homo sapiens, UniProt P28335).
T4 construct: expressed in transfected cells; host or cells: CHO cell line
T4 sequence (P28335 33-458): T2 sequence (P28335 33-458)
As to the kind of experiment: Binding to 5-HT2C receptor, [3H]-5-HT, CHO cell line. Particulars: read-out: Ki (2C). As to the method:
as §4
Method (a): For the binding to the 5-HT2C receptor the 5-HT2C receptors were radiolabeled with [^3H]-5-HT. The affinity of the compounds for 5-HT2C receptors in a CHO cell line was determined according to the procedure of D. Hoyer, G. Engel and H. O. Kalknan, European J. Pharmacol., 1985, 118, 13–23.

The target in another series is T5, 5-HT2A receptor (Homo sapiens, UniProt P28223).
T5 construct: expressed in transfected cells; host or cells: CHO cell line
As to the kind of experiment: Binding to 5-HT2A receptor, [125I]-DOI, CHO cell line. Particulars: read-out: Ki (2A). The protocol:
as §4
Method (c): For the binding to the 5-HT2A receptor the 5-HT2A receptors were radiolabeled with [^125I]-DOI. The affinity of the compounds for 5-HT2A receptors in a CHO cell line was determined according to the procedure of D. J. McKenna and S. J. Peroutka, J. Neurosci., 1989, 9/10, 3482–90.

Where [3] appears, read: maximum fluorescent signal relative to 10 μM 5-HT (defined as 100%).

T1 sequence (P28223 whole entry): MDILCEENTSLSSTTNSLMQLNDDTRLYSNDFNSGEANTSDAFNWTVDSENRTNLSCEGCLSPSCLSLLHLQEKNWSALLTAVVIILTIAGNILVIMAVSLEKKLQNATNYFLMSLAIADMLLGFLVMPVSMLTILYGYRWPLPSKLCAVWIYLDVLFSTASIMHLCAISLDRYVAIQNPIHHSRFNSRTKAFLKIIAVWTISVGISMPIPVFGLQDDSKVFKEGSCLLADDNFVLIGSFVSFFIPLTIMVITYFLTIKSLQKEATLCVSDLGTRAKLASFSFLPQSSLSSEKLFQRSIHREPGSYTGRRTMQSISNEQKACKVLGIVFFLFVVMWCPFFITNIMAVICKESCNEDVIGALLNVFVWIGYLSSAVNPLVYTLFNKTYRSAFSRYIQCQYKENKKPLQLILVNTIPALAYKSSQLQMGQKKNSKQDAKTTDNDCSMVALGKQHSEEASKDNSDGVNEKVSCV
T3 sequence (P41595 whole entry): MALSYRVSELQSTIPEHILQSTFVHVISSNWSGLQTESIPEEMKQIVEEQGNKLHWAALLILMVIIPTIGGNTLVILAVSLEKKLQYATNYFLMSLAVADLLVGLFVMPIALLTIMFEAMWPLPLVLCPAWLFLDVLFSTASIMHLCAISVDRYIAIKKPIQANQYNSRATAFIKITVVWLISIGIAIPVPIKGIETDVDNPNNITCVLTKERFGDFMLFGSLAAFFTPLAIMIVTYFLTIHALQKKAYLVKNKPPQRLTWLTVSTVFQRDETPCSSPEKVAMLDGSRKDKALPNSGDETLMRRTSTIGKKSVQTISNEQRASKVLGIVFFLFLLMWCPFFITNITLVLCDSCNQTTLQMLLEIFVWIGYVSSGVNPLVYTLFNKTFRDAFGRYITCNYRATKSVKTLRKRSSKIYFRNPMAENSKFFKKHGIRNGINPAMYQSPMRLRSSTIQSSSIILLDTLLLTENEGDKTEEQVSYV
T5 sequence (P28223 whole entry): as the sequence (P28223 whole entry) above

As a reminder, the EC50 is the concentration that produces a half-maximal response. Take `C[C@H](N)CN1CCc2ccc3c(c21)CCS3` [Compound 5, (S)-1-(2,3,7,8-Tetrahydrothieno[2,3-g]indol-1-yl)-2-propylamine fumarate]: the results for the Emax at h5-HT2A receptor (setting [3]) and on h5-HT2C receptor (setting [3]) were 77% and 86%, respectively. Moreover, the EC50 on h5-HT2A receptor was determined as 48 nM; at h5-HT2C receptor, 0.4 nM.
By melting point is commonly meant the temperature of the solid-liquid transition. `C[C@H](N)CN1CCc2ccc3c(c21)CCCO3` (as salt: fumarate) [Compound 4, (S)-1-(2,3,7,8-Tetrahydro-9H-pyrano[2,3-g]indol-1-yl)-2-propylamine fumarate] had a melting point of 168 to 169 °C.
Still for that read-out and setting: in the case of `C[C@H](N)CN1CCc2ccc3c(c21)OCCO3` (as salt: fumarate) [Compound 6, (S)-1-(2,3,7,8-Tetrahydro-9H-1,4-dioxino[2,3-g]indol-9-yl)2-propylamine fumarate] it was 173 to 174 °C (dec.).
In the case of `C[C@H](N)CN1CCc2ccc3c(c21)CCCO3` [Compound 4, (S)-1-(2,3,7,8-Tetrahydro-9H-pyrano[2,3-g]indol-1-yl)-2-propylamine fumarate], the Emax at h5-HT2A receptor (setting [3]) is 66%; on h5-HT2C receptor (setting [3]), 89%. The EC50 on h5-HT2A receptor is 505 nM; at h5-HT2C receptor, 47 nM.
In the case of `CCN[C@@H](C)Cc1cccc(C(F)(F)F)c1` [dexfenfluramine], in [1], the “food intake and body weight” value is “decrease food intake and body weight”.
Regarding `CCC1CN(CC(C)N)c2c1ccc1c2CCO1` (single isomer, unassigned) [Compound 9, [2S3′(R or S)]-1-(3-Ethyl-2,3,7,8-tetrahydrofuro[2,3-g]indol-1-yl)-2-propylamine fumarate], the Emax on h5-HT2A receptor (setting [3]) stood at 22%; on h5-HT2C receptor (setting [3]), 74%. The EC50 at h5-HT2A receptor turned out to be 1140 nM; at h5-HT2C receptor it was 50 nM.
As for `Clc1cccc(N2CCNCC2)c1` [mCPP, m-chlorophenylpiperazine], the “food intake in female volunteers” value in the series on female volunteers is listed as “decreased food intake”. Besides, the “appetite and body weight of obese subjects” value in series [2] was “decreased the appetite and body weight”. In addition, the “appearance of the behavioural satiety sequence” value in the series on rats (rat, in vivo) is given as “accelerate the appearance of the behavioural satiety sequence”. The “food intake in rats” value in the series on rats (rats) is given as “reduce food intake”.
`C[C@H](N)CN1CCc2ccc3c(c21)CCC3` [Compound 8, (S)-1-[1-(1,2,3,6,7,8-Hexabydrocyclopent[g]indolyl)]-2-propylamine fumarate]: the Emax is 0% on h5-HT2A receptor (setting [3]) and 69% on h5-HT2C receptor (setting [3]). For the same compound, the EC50 on h5-HT2A receptor was at least 10000 nM; on h5-HT2C receptor, 217 nM.
Regarding `CCNC(C)Cc1cccc(C(F)(F)F)c1` (stereo not drawn) [fenfluramine], in [1], the “food intake and body weight” value is “decrease food intake and body weight”.
Turning to `C[C@H](N)CN1CCc2ccc3c(c21)CCO3` (as salt: fumarate) [Compound 3, (S)-1-(2,3,7,8-Tetrahydrofuro[2,3-g]indol-1-yl)-2-propylamine fumarate], the melting point was 215.5 to 217 °C (dec.).
On the same count and under the same terms, in the case of `C[C@H](N)CN1CCc2ccc3c(c21)CCC3` (as salt: fumarate) [Compound 8, (S)-1-[1-(1,2,3,6,7,8-Hexabydrocyclopent[g]indolyl)]-2-propylamine fumarate] it was 182 °C (dec.); in that of `C[C@H](N)CN1CCc2ccc3c(c21)CCCC3` (as salt: fumarate) [Compound 7, (S)-1-(2,3,6,7,8,9-Hexabydro-1H-benz[g]indol-1-yl)]-2-propylamine, fumarate], 178 to 182 °C.
The Ki is the dissociation constant of the complex between target and ligand, obtained from inhibition or displacement. Regarding `C[C@H](N)CN1CCc2ccc3ccccc3c21` [Compound 1, (S)-1-(Benz[g]indolin-1-yl)-2-propylamine hemi-fumarate], the Ki at human 5-HT2B receptors was determined as 39 nM; at 5-HT2C receptor, 107 nM; at 5-HT2A receptor, 173 nM. Besides, the Emax worked out at 51% at h5-HT2A receptor (setting [3]) and 79% on h5-HT2C receptor (setting [3]). For the same compound, the EC50 came out at 1370 nM at h5-HT2A receptor and 158 nM at h5-HT2C receptor.
On to `C[C@@H](N)CN1CCc2ccc3ccccc3c21` [Compound 2, (R)-1-(Benz[g]indolin-1-yl)-2-propylamine hemi-fumarate], for which the EC50 was above 10000 nM on h5-HT2A receptor and 1720 nM at h5-HT2C receptor. Also, the Emax on h5-HT2C receptor (setting [3]) was found to be 44%.
With `C[C@H](N)CN1CCc2ccc3c(c21)OCCO3` [Compound 6, (S)-1-(2,3,7,8-Tetrahydro-9H-1,4-dioxino[2,3-g]indol-9-yl)2-propylamine fumarate], the Ki worked out at 218 nM on human 5-HT2B receptors, 70 nM at 5-HT2C receptor and 223 nM at 5-HT2A receptor. Also, the Emax at h5-HT2A receptor (setting [3]) was determined as 71%; at h5-HT2C receptor (setting [3]) it was 90%. Also, the results for the EC50 on h5-HT2A receptor and on h5-HT2C receptor were 312 nM and 47 nM, respectively.
Regarding `CCC1CN(CC(C)N)c2c1ccc1c2CCO1` (single isomer, unassigned) [Compound 10, [2S,3′(S or R)]-1-(3-Ethyl-2,3,7,8-tetrahydrofuro[2,3-g]indol-1-yl)-2-propylamine fumarate], the 50% effective concentration (EC50) on h5-HT2A receptor came out at 403 nM; on h5-HT2C receptor it was 51 nM. Besides, the “h5-HT2A Relative Efficacy (%)” value at h5-HT2A receptor (setting [3]) is 15%. Moreover, the “h5-HT2C Relative Efficacy (%)” value at h5-HT2C receptor (setting [3]) worked out at 67%.
Take `C[C@H](N)CN1CCc2ccc3c(c21)CCO3` [Compound 3, (S)-1-(2,3,7,8-Tetrahydrofuro[2,3-g]indol-1-yl)-2-propylamine fumarate]: the Emax is 81% on h5-HT2A receptor (setting [3]) and 94% on h5-HT2C receptor (setting [3]). Moreover, the values for the EC50 at h5-HT2A receptor and on h5-HT2C receptor were 138 nM and 6 nM, respectively.
For the compound `C[C@H](N)CN1CCc2ccc3c(c21)CCCC3` [Compound 7, (S)-1-(2,3,6,7,8,9-Hexabydro-1H-benz[g]indol-1-yl)]-2-propylamine, fumarate], the Emax on h5-HT2A receptor (setting [3]) came to 14%; on h5-HT2C receptor (setting [3]), 68%. Also, the results for the EC50 on h5-HT2A receptor and at h5-HT2C receptor were 1830 nM and 440 nM, respectively.
As for `C[C@H](N)CN1CCc2ccc3c(c21)CCS3` (as salt: fumarate) [Compound 5, (S)-1-(2,3,7,8-Tetrahydrothieno[2,3-g]indol-1-yl)-2-propylamine fumarate], the melting point is 188 to 189.5 °C (dec.).
